Data as given in patent US20240398801A1, “TREATMENT OF LEUKEMIA BASED ON LEUKEMIA HIERARCHY IN A PATIENT” (UNIVERSITY HEALTH NETWORK, priority 2021, published 2024).

Key:
primary AML samples [1] = assay: Association of LinClass-7 / LSC17 score with ex vivo drug sensitivity in primary AML drug screens; assay type: cell-based, human
Experimental: Ex vivo drug response in BEAT-AML samples was measured through the Area Under the dose-response Curve (AUC) metric, wherein a low AUC corresponds to sensitivity while a high AUC corresponds to resistance. AUC values were scaled and multiplied by −1 to represent sensitivity in each treatment condition. Pearson correlation was used to measure association between cell type abundance and drug sensitivities, following recommendations from a benchmarking study by Smirnov et al^97. Associations were depicted using the R package “corrplot”, and drug sensitivity volcano plots were generated using the R package “EnhancedVolcano”. For associations of cell type abundance with clinical and biological features, absolute cell type abundance was always used and pearson correlations were calculated unless otherwise specified.
To derive the LinClass-7 score, logCPM-normalized expression of 16 genes from the LSC17 assay were used as input features for LASSO regression: DNMT3B, GPR56, NGFRAP1, CD34, DPYSL3, SOCS2, MMRN1, KIAA0125, EMP1, NYNRIN, LAPTM4B, CDK6, AKR1C3, ZBTB46, CPXM1, ARHGAP22. The 17th gene, C19orf77, was excluded due to lack of expression data in the Leucegene cohort. LASSO regression was performed on negative PC2 (high in Primitive and low in Mature) with leave-one-out cross validation using the LassoCV function from scikit-learn with a path length of 0.1. Patients from TCGA and Leucegene were combined into a training set, and patients from BEAT-AML were used as a validation set to evaluate the strength of the association between LinClass-7 and PC2.

human AML cells = assay: Changes in cell type composition after drug treatment (deconvolution of RNA-seq from preclinical studies); assay type: cell-based
Description: To identify RNA-seq datasets collected from AML samples before and after drug treatment, Applying the search terms “Acute Myeloid Leukemia” and “AML” with the “Homo sapien” and “RNA-sequencing” flags on Gene Expression Omnibus (GEO) and ArrayExpress, we identified 95 datasets posted before Jun. 17, 2021. From these, 53 were inhibitors that met the inclusion criteria of human AML samples with available RNA-sequencing data collected before and after drug treatment. Datasets with only differential expression results or Bigwig files were excluded. Datasets with less than three samples in each treatment group were also excluded, resulting in a total of 47 datasets included in the final analysis. Each dataset was processed and underwent TPM normalization and deconvolution with CIBERSORTx using a signature matrix of seven malignant cell types (LSPC-Quiescent, LSPC-Primed, LSPC-Cycle, GMP-like, ProMono-like, Mono-like, cDC-like). For quality control among cell line samples, the deconvolution correlation values from each sample across every dataset were compared and the jenks natural breaks algorithm was employed to identify cutoffs demarcating low, medium, and high correlation bins. Cell line samples classified as “low-correlation” with a correlation value below 0.437 were excluded from further analysis, leaving 42 datasets spanning 153 treatment conditions.
Relative changes in cell type abundance in each treatment condition were evaluated using Wilcoxon rank-sum tests for technical replicates or Wilcoxon signed-rank tests for biological replicates with paired treatment conditions. For dimensionality reduction with UMAP, we focused exclusively on changes in cell type abundance where the p-value was <0.05 to emphasize the key changes in cell type composition induced by each drug, resulting in 125 treatment conditions spanning 38 studies. Absolute log p-values were used to represent the magnitude of shift in cell type abundance, and cell type changes where p>0.05 were assigned a magnitude of zero. […]

AML = assay: Subgroup analysis of the ALFA-0701 trial by LinClass-7 score; assay type: in vivo, human
primary AML samples [2] = assay: Selinexor in vivo treatment of primary AML samples, cell type abundance by RNA-seq deconvolution; set-up: species or system NSG mice; conditions: primary AML samples treated in vivo
Experimental: RNA was extracted from bulk peripheral blood mononuclear cells using an RNeasy Micro Kit (Qiagen). Libraries were constructed using SMART-Seq (Clonetec). A paired-end 50-base-pair flow-cell lane Illumina HiSeq 2000 yielded an average of 240 million aligned reads per sample. To align RNA-seq reads from samples used in selinexor and fedratinib treatments, Illumina paired-end sequence data were analyzed with BWA/v0.6 alignment software with option (-s) to disable Smith-Waterman alignment. Reads were mapped onto GRCh37-lite reference genome and exon-exon junction reference whose coordinates were defined based on transcript annotations in Ensembl/v59. Reads with mapping quality <10 were discarded and duplicate reads were tagged using the Picard's MarkDuplicates program. JAGuaR 2.1 was used to incorporate reads spanning multiple exons into the alignment by introducing large alignment gaps. All transcripts of a given gene were collapsed into a single gene model such that exonic bases were the union of exonic bases that belonged to all known transcripts of the gene. Read counts and subsequently RPKM counts were obtained by counting the fraction of each read that overlapped with an exonic region for that gene. To align RNA-seq reads from functionally annotated LSC fractions, sequence data was aligned against GRCh38 and transcript sequences downloaded from Ensembl build 90 using STAR 2.5.2a. […]

AML engraftment = assay: Patient-derived xenograft (PDX) response of AML patient samples to fedratinib, CC-90009 or their combination; assay type: in vivo, NOD.SCID mice; conditions: for response rate: PDX
Experimental: Using normalized malignant cell type composition data for 46 patient samples used for in vivo fedratinib or CC-90009 treatment, dimensionality reduction was performed and clustering was assigned using the leiden algorithm with a resolution of 0.7, yielding three clusters: Primitive, Mature, Intermediate/GMP. […] Samples were subsequently projected on the reference map for visualization and confirmation of cluster assignments.
Patient samples were classified into response categories by comparing the relative reduction (RR) of AML engraftment in drug-treated mice versus vehicle-treated mice, as per Galkin et al 98. RR was calculated as: ((mean % engraftment in control mice)−(mean % engraftment in drug treated mice))/(mean % engraftment in control mice). Patient samples were classified as Responders if RR in the injected femur (Right Femur, RF) was >50%, classified as Partial Responders if we observed 20 to 50% RR in the RF or >20% in the non-injected femur (Bone Marrow, BM) only, and classified as Non-Responders if there was no statistically significant difference in engraftment levels between control- and drug-treated mice, or if RR was <20% in both RF and BM.
Samples with unknown NPM1 mutation status were subsequently assigned as NPM1 mutant or NPM1 wild-type according to their cluster membership.
NOD.SCID mice were bred and housed in the University Health Network (UHN) animal care facility and all animal experiments were performed in accordance with guidelines approved by the UHN animal care committee. Ten-week-old NOD.SCID mice were irradiated (225 cGy) and pretreated with anti-CD122 antibody (200 μg per mouse), 24 hours prior to transplantation. Viably frozen mononucleated cells from AML patients were thawed, counted, and intrafemorally injected at the dose of 5 million cells per mouse. At day 21 post transplantation, treatment of either CC-90009 or Fedratinib alone with vehicle, or in combination, was initiated twice a day for 2 weeks. CC-90009 was given by intraperitoneal (IP) injections at the dose of 2.5 mg/kg and Fedratinib was dissolved in 0.5% methylcellulose and orally gavaged at 60 mg/kg. Following treatment, levels of AML engraftment were assessed to determine the efficacy of drug treatment against the disease in the mice. Cells collected from the injected right femur, non-injected bone marrow of each individual mouse were stained with human specific antibodies and evaluated by flow cytometry. Antibodies used for assessment of human AML engraftment include: CD45-APC, CD33-PE-Cy5, CD19-V450, CD34-APC-Cy7, CD15-FITC (BD), CD33-PE-Cy5, and CD14-PE (Beckman Coulter).

[3] = added to standard chemotherapy vs chemotherapy alone, LinClass-7 low (mature) AML
[4] = AMLs with Intermediate/GMP hierarchies
[5] = AMLs with Primitive hierarchies

CC1(C)CCC(c2ccc(Cl)cc2)=C(CN2CCN(c3ccc(C(=O)NS(=O)(=O)c4ccc(N[C@H](CCN5CCOCC5)CSc5ccccc5)c(S(=O)(=O)C(F)(F)F)c4)cc3)CC2)C1 [Navitoclax]
difference in ex vivo sensitivity between patient samples with high and low score (primary AML samples [1]; split by LSC17): no significant difference
difference in ex vivo sensitivity between patient samples with high and low score (primary AML samples [1]; split by LinClass-7): stark differences

CC1=C(/C=C/C(C)=C/C=C/C(C)=C/C(=O)O)C(C)(C)CCC1 [ATRA]
blast population from which differentiation is induced (human AML cells): predominantly from GMP-like blasts

Gemtuzumab Ozogamicin [GO]
event-free survival (AML; [3]): significantly longer
relapse-free survival (AML; [3]): significantly longer
survival benefit (AML; added to standard chemotherapy, LinClass-7 high primitive AML): no significant survival benefit
overall survival (AML; added to standard chemotherapy, LinClass-7 low (mature) AML): did not extend

O=C(/C=C\n1cnc(-c2cc(C(F)(F)F)cc(C(F)(F)F)c2)n1)NNc1cnccn1 [Selinexor]
Cycling LSPC population after treatment (primary AML samples [2]): depletion
Cycling LSPC population after treatment (human AML cells; primary AML samples treated in vitro): depletion

O=C1CCC(N2Cc3cc(CNC(=O)C(F)(F)c4ccc(Cl)cc4)ccc3C2=O)C(=O)N1 (stereo not drawn) [CC-90009]
response rate (AML engraftment; [4]): 83%
response rate (AML engraftment; AMLs with Mature hierarchies): 88%
response rate (AML engraftment; [5]): 40%
response among Primitive AMLs (AML engraftment; Primitive AMLs lacking NPM1c mutation and ETC signatures): favorable response
response among Primitive AMLs (AML engraftment; Primitive AMLs with NPM1c mutations and electron transport chain signatures): poor response

Cc1cnc(Nc2ccc(OCCN3CCCC3)cc2)nc1Nc1cccc(S(=O)(=O)NC(C)(C)C)c1 [fedratinib]
response rate (AML engraftment; [4]): 20%
response rate (AML engraftment; AMLs with Mature hierarchies): 88%
response rate (AML engraftment; [5]): 46%

Cc1c(-c2ccc(-c3ccccc3F)cc2)nc2ccc(F)cc2c1C(=O)O [Brequinar]
Quiescent LSPC abundance after treatment (human AML cells; accompanying induced differentiation): reduction

FC(F)(F)c1ccc(/C=C/c2nc(COc3ccc(CCCCn4ccnn4)cc3)co2)cc1 [Mubritinib]
blasts targeted, from correlation of LinClass-7 score with drug sensitivity (primary AML samples [1]; drug screens of Tyner et al and Lee et al): primitive blasts
difference in ex vivo sensitivity between patient samples with high and low score (primary AML samples [1]; split by LSC17): no significant difference
difference in ex vivo sensitivity between patient samples with high and low score (primary AML samples [1]; split by LinClass-7): stark differences
